Patent publication EP4596536A1 (Shanghai de Novo Pharmatech Co., Ltd., priority 2022, dated 2024)

Each molecule was assayed against T1, TLR8 (Homo sapiens, UniProt Q9NR97) (assay: HEK-BLUE-hTLR8 cell SEAP reporter assay (Quanti-Blue)). Conditions: HEK-BLUE-hTLR8 cells, 0.5 nM to 15 µM, 24 hours.
T1 construct: host or cells: HEK293 (HEK-BLUE-hTLR8)
T1 sequence (Q9NR97 27-1041): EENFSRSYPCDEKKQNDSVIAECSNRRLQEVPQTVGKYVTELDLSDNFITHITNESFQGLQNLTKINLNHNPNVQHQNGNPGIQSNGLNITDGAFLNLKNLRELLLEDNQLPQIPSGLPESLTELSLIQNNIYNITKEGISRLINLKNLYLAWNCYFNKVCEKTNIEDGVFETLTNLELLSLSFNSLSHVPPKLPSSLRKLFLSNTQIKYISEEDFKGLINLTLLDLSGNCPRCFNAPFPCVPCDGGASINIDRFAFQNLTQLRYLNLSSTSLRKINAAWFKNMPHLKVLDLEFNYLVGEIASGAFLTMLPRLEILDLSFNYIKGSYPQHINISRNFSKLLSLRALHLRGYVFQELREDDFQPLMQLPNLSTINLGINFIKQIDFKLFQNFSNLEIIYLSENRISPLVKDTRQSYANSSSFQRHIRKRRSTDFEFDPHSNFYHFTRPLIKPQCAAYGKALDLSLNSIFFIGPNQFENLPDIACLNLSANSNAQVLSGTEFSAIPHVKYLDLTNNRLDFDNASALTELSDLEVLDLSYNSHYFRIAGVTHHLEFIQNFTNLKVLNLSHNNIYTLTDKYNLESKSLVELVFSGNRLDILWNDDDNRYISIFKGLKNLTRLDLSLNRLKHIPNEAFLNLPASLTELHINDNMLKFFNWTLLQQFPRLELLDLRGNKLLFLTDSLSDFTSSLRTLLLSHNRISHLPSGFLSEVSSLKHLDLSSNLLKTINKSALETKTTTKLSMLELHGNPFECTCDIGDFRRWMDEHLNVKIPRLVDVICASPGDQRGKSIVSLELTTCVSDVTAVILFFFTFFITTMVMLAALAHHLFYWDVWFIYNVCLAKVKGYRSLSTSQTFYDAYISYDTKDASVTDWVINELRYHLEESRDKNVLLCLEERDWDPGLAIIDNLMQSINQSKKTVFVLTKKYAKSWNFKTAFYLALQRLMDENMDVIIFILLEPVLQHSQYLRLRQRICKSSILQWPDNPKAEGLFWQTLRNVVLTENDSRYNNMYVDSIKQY
Assay type: cell-based
Experimental: In this experiment, the biological activity of TLR7 and TLR8 in the compound of formula I was detected using cell tests. This method was conducted in human embryonic kidney cells (HEK293) expressing TLR family members such as TLR4, TLR7, TLR8 or TLR9. TLR agonists activate TLRs, triggering the activation of downstream NF-kB, which in turn activates the secreted embryonic alkaline phosphatase (SEAP) reporter gene. The activity of SEAP was detected using the Quanti-Blue (InvivoGen) reagent, thereby reflecting the activities of TLR7 and TLR8 agonists.
The detailed experimental method was as follows: HEK-BLUE-hTLR7 and HEK-BLUE-hTLR8 cell lines were purchased from Invivogen Company and cultured in DMEM medium containing 4.5 g/L glucose (Sigma-Aldrich) and 10% fetal bovine serum under the conditions of temperature 37°C, humidity 95% and 5% CO2.
The compound was tested at a concentration ranging from 0.5 nM to 15 µM over a total of 10 concentration gradients. TLR7 or TLR8 agonists with known activity were added as positive controls, and 1 µL of DMSO was added as a negative control.
The cells were treated as follows: the cells were removed from the culture dish and centrifuged to remove the medium, and resuspended in a T-150 bottle with 10 mL of preheated PBS, 12 mL of preheated medium was added, and the cells were gently pipetted up and down and counted under a microscope. A 200,000/mL single-cell suspension was immediately prepared with medium and added to a 96-well plate at 200 µL/well (40,000/well). The final concentration of DMSO was 0.5%.
The compound was added and incubated in an incubator at 37°C, 5% CO2 for 24 hours.
A supernatant at 20 µL/well was aspirated into 180 µL of preheated Quanti-Blue at 37°C, incubated at 37°C for 1.5 hours, and detected for the absorbance (OD value) with a spectrophotometer at 650 nm. The formula for calculating the agonistic effect is as follows:
Effect % = (average OD value of the drug-administered group - average OD value of the DMSO group) / (average OD value of the positive drug group - average OD value of the DMSO group) × 100
Graphpad software was used to fit the concentration-effect curve, and EC50 was calculated. The test results are shown in Table 15 (A denotes < 250 nM, B denotes 250 nM-1 µM, C denotes 1 µM-2 µM, D denotes > 2 µM, and - denotes not listed or not tested): Table 15

Row | SMILES | EC50
1 | CCCN(CCO)C(=O)C1=Cc2ccc(C3(C(=O)NCc4cccc(N)c4)CC3)cc2N=C(N)C1 [Compound 18, 2-amino-8-(1-((3-aminobenzyl)carbamoyl)cyclopropyl)-N-(2-hydroxyethyl)-N-propyl-3H-benzo[b]azepine-4-formamide] | < 0.25 µM
2 | CCCN(CCO)C(=O)C1=Cc2ccc(C3(C(=O)NCc4ccc(N)cc4)CC3)cc2N=C(N)C1 [Compound 17, 2-amino-8-(1-((4-aminobenzyl)carbamoyl)cyclopropyl)-N-(2-hydroxyethyl)-N-propyl-3H-benzo[b]azepine-4-formamide] | < 0.25 µM
3 | CCCN(CCO)C(=O)C1=Cc2ccc(C3(C(=O)Nc4cncc(N)c4)CC3)cc2N=C(N)C1 [Compound 20, 2-amino-8-(1-((5-aminopyridin-3-yl)carbamoyl)cyclopropyl)-N-(2-hydroxyethyl)-N-propyl-3H-benzo[b]azepine-4-formamide] | 0.25 to 1 µM
4 | CCCN(CCO)C(=O)C1=Cc2ccc(C3(C(=O)NCc4cncc(N)c4)CC3)cc2N=C(N)C1 [Compound 22, 2-amino-8-(1-(((5-aminopyridin-3-yl)methyl)carbamoyl)cyclopropyl)-N-(2-hydroxyethyl)-N-propyl-3H-benzo[b]azepine-4-formamide] | 0.25 to 1 µM
5 | CCCN(CCO)C(=O)C1=Cc2ccc(C3(C(=O)Nc4cnc5c(c4)CN(C(=O)CNC(=O)CCOCCOCCNC(=O)CN4C(=O)C=CC4=O)CC5)CC3)cc2N=C(N)C1 [II-46, 2-amino-8-(1-((6-(1-(2,5-dioxo-2,5-dihydro-1H-pyrrol-1-yl)-2,12-dioxo-6,9-dioxa-3,13-diazapentadecan-15-acyl)-5,6,7,8-tetrahydro-1,6-naphthyridin-3-yl)carbamoyl)cyclopropyl)-N-(2-hydroxyethyl)-N-propyl-3H-benzo[b]azepine-4-formamide] | < 0.25 µM
6 | CCCN(CCO)C(=O)C1=Cc2ccc(C3(C(=O)Nc4cnc5c(c4)CN(C(=O)OCc4ccc(NC(=O)[C@H](CC(N)=O)NC(=O)[C@H](C)NC(=O)[C@H](C)NC(=O)CCCCCN6C(=O)C=CC6=O)cc4)CC5)CC3)cc2N=C(N)C1 [II-96] | 0.25 to 1 µM

Second part, the molecule after the results:

Row | EC50 | SMILES
7 | < 0.25 µM | CCCN(CCO)C(=O)C1=Cc2ccc(C3(C(=O)Nc4cnc5c(c4)CN(C(=O)CCOCCOCCNC(=O)CN4C(=O)C=CC4=O)CC5)CC3)cc2N=C(N)C1 [II-23, 2-amino-8-(1-((6-(3-(2-(2-(2-(2,5-dioxo-2,5-dihydro-1H-pyrrol-1-yl)acetylamino)ethoxy)ethoxy)propionyl)-5,6,7,8-tetrahydro-1,6-naphthyridin-3-yl)carbamoyl)cyclopropyl)-N-(2-hydroxyethyl)-N-propyl-3H-benzo[b]azepine-4-formamide]
8 | 0.25 to 1 µM | CCCN(CCO)C(=O)C1=Cc2ccc(C3(C(=O)Nc4cnc5c(c4)CN(C(=O)CCOCCOCCNC(=O)[C@H](CCCNC(N)=O)NC(=O)[C@@H](NC(=O)CCCCCN4C(=O)C=CC4=O)C(C)C)CC5)CC3)cc2N=C(N)C1 [II-17, 2-amino-8-(1-((6-((12S,15S)-22-(2,5-dioxo-2,5-dihydro-1H-pyrrol-1-yl)-15-isopropyl-11,14,17-trioxo-12-(3-ureidopropyl)-4,7-dioxa-10,13,16-triazabehenoyl)-5,6,7,8-tetrahydro-1,6-naphthyridin-3-yl)carbamoyl)cyclopropyl)-N-(2-hydroxyethyl)-N-propyl-3H-benzo[b]azepine-4-formamide]
9 | < 0.25 µM | CCCN(CCO)C(=O)C1=Cc2ccc(C3(C(=O)Nc4cnc5c(c4)CN(C(=O)OCc4ccc(O[C@@H]6O[C@H](C(=O)O)[C@@H](O)[C@H](O)[C@H]6O)c(NC(=O)CNC(=O)CCCCCN6C(=O)C=CC6=O)c4)CC5)CC3)cc2N=C(N)C1 [II-36, (2S,3S,4S,5R,6S)-6-(4-(((3-(1-(2-amino-4-((2-hydroxyethyl)(propyl)carbamoyl)-3H-benzo[b]azepin-8-yl)cyclopropyl-1-formylamino)-5,6,7,8-tetrahydro-1,6-naphthyridine-6-carbonyl)oxy)methyl)-2-(2-(6-(2,5-dioxo-2,5-dihydro-1H-pyrrol-1-yl)hexanoylamino)acetylamino)phenoxy)-3,4,5-trihydroxytetrahydro-2H-pyran-2-carboxylic acid]
